Data taken from ChEMBL document CHEMBL1157604 (J Med Chem, 2010).
Calls of active or inactive are those of the source. The calls are words filed in the database; no cut-off is given here.

Key:
[1] = organism: Mus musculus; test: Antinociceptive activity in ICR mouse assessed as inhibition of nicotine-induced response by hotplate test; format: functional
[2] = target: Sodium-dependent dopamine transporter (Homo sapiens, UniProt Q01959); test: Inhibition of [3H]dopamine uptake at human DAT expressed in HEK293 cells; format: cell-based
[3] = target: Neuronal acetylcholine receptor; alpha4/beta2 (Homo sapiens) (UniProt P17787+P43681); test: Intrinsic activity at human alpha4beta2 nAChR receptor expressed in human SH-SY5Y cells assessed as 86Rb+ efflux at 5 to 100 uM by liquid scintillation counting; format: cell-based
[4] = organism: Mus musculus; test: Antinociceptive activity in ICR mouse D'Amour and Smith model of pain assessed as inhibition of nicotine-induced response by tail-flick test; format: functional
[5] = organism: Mus musculus; test: Effect on body temperature in ICR mouse assessed as inhibition of nicotine-induced hypothermic response; format: functional
[6] = target: Neuronal acetylcholine receptor; alpha4/beta4 (Homo sapiens) (UniProt P30926+P43681); test: Intrinsic activity at human alpha4beta4 nAChR receptor expressed in human SH-SY5Y cells assessed as 86Rb+ efflux at 5 to 100 uM by liquid scintillation counting; format: cell-based
[7] = target: Sodium-dependent noradrenaline transporter (Homo sapiens, UniProt P23975); test: Inhibition of [3H]norepinephrine uptake at human NET expressed in HEK293 cells; format: cell-based
[8] = target: Sodium-dependent serotonin transporter (Homo sapiens, UniProt P31645); test: Inhibition of [3H]serotonin uptake at human SERT expressed in HEK293 cells; format: cell-based
[9] = organism: Mus musculus; test: Effect on behavioral activity in ICR mouse assessed as inhibition of nicotine-induced locomotory response by locomotor assay; format: functional
[10] = target: Acetylcholine receptor; alpha1/beta1/delta/gamma (Homo sapiens) (UniProt P02708+P07510+P11230+Q07001); test: Intrinsic activity at alpha-1-beta-1-gamma-delta nAChR receptor expressed in human TE671/RD cells assessed as 86Rb+ efflux at 5 to 100 uM by liquid scintillation counting; format: cell-based
[11] = target: Neuronal acetylcholine receptor; alpha3/beta4 (Homo sapiens) (UniProt P30926+P32297); test: Intrinsic activity at alpha3beta4 nAChR receptor in human SH-SY5Y cells assessed as 86Rb+ efflux at 5 to 100 uM by liquid scintillation counting; format: cell-based

Sequence of Sodium-dependent noradrenaline transporter (P23975 whole entry): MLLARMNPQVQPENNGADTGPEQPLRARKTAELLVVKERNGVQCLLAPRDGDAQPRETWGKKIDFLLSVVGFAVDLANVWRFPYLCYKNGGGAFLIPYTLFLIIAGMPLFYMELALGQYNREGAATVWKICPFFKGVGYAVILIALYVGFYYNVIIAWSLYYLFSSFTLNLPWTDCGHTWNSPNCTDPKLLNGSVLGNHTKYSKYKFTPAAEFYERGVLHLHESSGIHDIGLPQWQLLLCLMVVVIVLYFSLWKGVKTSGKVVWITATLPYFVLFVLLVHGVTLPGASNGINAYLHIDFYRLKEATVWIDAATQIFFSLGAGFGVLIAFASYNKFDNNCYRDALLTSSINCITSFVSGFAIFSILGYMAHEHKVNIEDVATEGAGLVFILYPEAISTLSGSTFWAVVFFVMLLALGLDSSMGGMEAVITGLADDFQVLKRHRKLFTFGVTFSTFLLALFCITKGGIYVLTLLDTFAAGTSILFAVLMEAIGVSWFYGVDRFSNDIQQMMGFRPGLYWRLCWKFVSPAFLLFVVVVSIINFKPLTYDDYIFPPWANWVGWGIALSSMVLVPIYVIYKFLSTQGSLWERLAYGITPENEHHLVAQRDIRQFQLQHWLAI
Sequence of Sodium-dependent serotonin transporter (P31645 whole entry): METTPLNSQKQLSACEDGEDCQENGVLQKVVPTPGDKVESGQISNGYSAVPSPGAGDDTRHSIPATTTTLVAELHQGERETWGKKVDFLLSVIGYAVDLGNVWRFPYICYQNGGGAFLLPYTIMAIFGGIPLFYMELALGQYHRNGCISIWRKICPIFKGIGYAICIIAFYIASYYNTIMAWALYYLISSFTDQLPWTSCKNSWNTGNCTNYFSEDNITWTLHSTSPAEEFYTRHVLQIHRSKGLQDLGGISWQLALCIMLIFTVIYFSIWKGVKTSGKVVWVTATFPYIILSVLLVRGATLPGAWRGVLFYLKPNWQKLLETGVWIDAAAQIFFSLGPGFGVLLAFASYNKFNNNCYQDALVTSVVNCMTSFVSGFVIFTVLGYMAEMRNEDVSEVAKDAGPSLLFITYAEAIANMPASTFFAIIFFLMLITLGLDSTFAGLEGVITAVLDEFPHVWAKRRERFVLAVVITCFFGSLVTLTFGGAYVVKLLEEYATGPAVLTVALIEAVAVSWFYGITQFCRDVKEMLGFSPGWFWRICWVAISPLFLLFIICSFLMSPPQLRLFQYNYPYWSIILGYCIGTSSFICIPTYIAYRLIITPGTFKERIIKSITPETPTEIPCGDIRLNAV
Sequence of Sodium-dependent dopamine transporter (Q01959 whole entry): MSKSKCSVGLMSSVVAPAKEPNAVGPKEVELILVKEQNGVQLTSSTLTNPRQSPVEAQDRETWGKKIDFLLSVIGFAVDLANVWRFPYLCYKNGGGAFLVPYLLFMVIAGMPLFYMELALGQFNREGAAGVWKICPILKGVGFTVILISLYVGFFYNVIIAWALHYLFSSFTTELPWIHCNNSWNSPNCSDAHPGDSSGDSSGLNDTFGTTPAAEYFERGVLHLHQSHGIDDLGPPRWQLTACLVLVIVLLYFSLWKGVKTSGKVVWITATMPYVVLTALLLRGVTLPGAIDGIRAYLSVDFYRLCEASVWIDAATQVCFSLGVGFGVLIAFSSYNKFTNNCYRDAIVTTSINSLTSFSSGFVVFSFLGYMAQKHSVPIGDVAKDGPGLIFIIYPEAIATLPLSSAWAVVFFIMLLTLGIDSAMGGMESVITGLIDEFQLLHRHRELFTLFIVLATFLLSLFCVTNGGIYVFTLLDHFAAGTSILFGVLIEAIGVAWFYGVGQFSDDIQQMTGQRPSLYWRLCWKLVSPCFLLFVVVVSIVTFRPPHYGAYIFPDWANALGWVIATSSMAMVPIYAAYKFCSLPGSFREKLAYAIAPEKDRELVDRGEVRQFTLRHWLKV

Row | SMILES | AD50 [1] | IC50 [2] [nM] | Activity [3] | AD50 [4] | AD50 [5] | Activity [6] | IC50 [7] [nM] | IC50 [8] [nM] | AD50 [9] | Activity [10] | Activity [11]
1 | COc1cccc(C(=O)C(C)NC2CCCC2)c1 (centres undefined) | inactive | 2270 | inactive | inactive | inactive | inactive | 8200 | 6900 | inactive | inactive | inactive
2 | CC(NC(C)(C)C)C(=O)c1ccc(Cl)c(Cl)c1 (centres undefined) | inactive | 463 | inactive | 0.28 mg/kg | inactive | inactive | 1670 | 8800 | inactive | inactive | inactive
3 | CC(NC(C)(C)C)C(=O)c1ccc(Br)cc1 (centres undefined) | 23.5 mg/kg | 689 | inactive | 0.15 mg/kg | 29 mg/kg | inactive | 2540 | 4510 | inactive | inactive | inactive
4 | CCC(NC(C)(C)C)C(=O)c1ccc(Cl)c(Cl)c1 (centres undefined) | inactive | 118 | inactive | 0.05 mg/kg | inactive | inactive | 389 | 1090 | inactive | inactive | inactive
